{"source": "patent US10752626B2", "about": "“Iso-citrate dehydrogenase (IDH) inhibitor” (SHANGHAI METON PHARMACEUTICAL CO., LTD, priority 2016, dated 2020)", "test": "Metabolic stability in mouse plasma", "type": "in vitro ADME", "description": "Blank male/female mouse plasma was provided by 3D BioOptima (Suzhou, China) and was freshly collected prior to use. The acetonitrile was purchased from Honeywell International Inc. (New Jersey, U.S.).\nAt each set time point (0, 15, 30, 60, 120 min), small aliquots from the plasma samples was transferred (each of 20 μL) into the mirocentrifuge tubes, then was added into 200 μL IS containing acetonitrile for protein precipitation. […] All incubations were performed in duplicate. In vitro compound stability was calculated by using the following equations: […]\nwhere Ct is the area ratio of the sample to the IS at […] post-incubation, and C0 is the area ratio of the sample to the IS at 0 h pre-incubation.\nIn this study, the metabolic stability of the compounds in mouse plasma was assessed according to the method disclosed in Test 3 of the Biological evaluation section.", "data": [{"smiles": "CCN1Cc2c(ccnc2N[C@@H](C)c2ccc(Oc3ccc(C)cc3)cc2)C1=O", "note": "[Compound 16, (S)-2-ethyl-4-(1-(4-(p-tolyloxy)phenyl)ethylamino)-2,3-dihydro-1H-pyrrolo [3,4-c]pyridin-1-one]", "values": [{"measurement": "period over which compound remains stable in mouse plasma", "result": "at least 2 hrs"}, {"measurement": "K", "setting": "#2", "result": 0.000737, "unit": "min⁻¹"}, {"measurement": "K", "setting": "Mean", "result": 0.000737, "unit": "min⁻¹"}, {"measurement": "half-life at 2 μM", "setting": "both sexes, #2", "result": 15.7, "unit": "h"}, {"measurement": "% remaining #1", "setting": "incubation 0 min", "result": 100, "unit": "%"}, {"measurement": "% remaining #2", "setting": "incubation 0 min", "result": 100, "unit": "%"}, {"measurement": "Ln (% remaining) #1", "setting": "incubation 0 min", "result": 4.61}, {"measurement": "Ln (% remaining) #2", "setting": "incubation 0 min", "result": 4.61}, {"measurement": "Mean Ln(% remaining)", "setting": "incubation 0 min", "result": 4.61}, {"measurement": "% remaining #1", "setting": "incubation 15 min", "result": 99.8, "unit": "%"}, {"measurement": "% remaining #2", "setting": "incubation 15 min", "result": 106, "unit": "%"}, {"measurement": "Ln (% remaining) #1", "setting": "incubation 15 min", "result": 4.60}, {"measurement": "Ln (% remaining) #2", "setting": "incubation 15 min", "result": 4.66}, {"measurement": "Mean Ln(% remaining)", "setting": "incubation 15 min", "result": 4.63}, {"measurement": "% remaining #1", "setting": "incubation 30 min", "result": 95.0, "unit": "%"}, {"measurement": "% remaining #2", "setting": "incubation 30 min", "result": 102, "unit": "%"}, {"measurement": "Ln (% remaining) #1", "setting": "incubation 30 min", "result": 4.55}, {"measurement": "Ln (% remaining) #2", "setting": "incubation 30 min", "result": 4.62}, {"measurement": "Mean Ln(% remaining)", "setting": "incubation 30 min", "result": 4.59}, {"measurement": "% remaining #1", "setting": "incubation 60 min", "result": 98.4, "unit": "%"}, {"measurement": "% remaining #2", "setting": "incubation 60 min", "result": 98.9, "unit": "%"}, {"measurement": "Ln (% remaining) #1", "setting": "incubation 60 min", "result": 4.59}, {"measurement": "Ln (% remaining) #2", "setting": "incubation 60 min", "result": 4.59}, {"measurement": "Mean Ln(% remaining)", "setting": "incubation 60 min", "result": 4.59}, {"measurement": "% remaining #1", "setting": "incubation 120 min", "result": 105, "unit": "%"}, {"measurement": "% remaining #2", "setting": "incubation 120 min", "result": 94.1, "unit": "%"}, {"measurement": "Ln (% remaining) #1", "setting": "incubation 120 min", "result": 4.65}, {"measurement": "Ln (% remaining) #2", "setting": "incubation 120 min", "result": 4.54}, {"measurement": "Mean Ln(% remaining)", "setting": "incubation 120 min", "result": 4.60}, {"measurement": "average percentage remaining", "setting": "within the 2 hrs period", "result": "above 98.5%"}]}]}
